# Results published in PubChem BioAssay AID1963832 (Molecular Pharmacology Branch, DTP, NCI, 2024).
# pIC50: −log10 of the molar value.
# System: 885724-159-R-J1-PDC complex spheroid viability
# Assay: Anticancer human tumor 885724-159-R-J1-PDC patient-derived pancreatic adenocarcinoma cell line growth inhibition [POLQ]
# Conditions: for pIC50: curve of first compound; for viability, T/C: stronger effect = lower value
# Experimental: Multicellular complex tumor spheroid response to Polymerase (POL) inhibitors (novobiocin, ART-558, RP6685) in combination with a variety of drugs and investigational agents in selected tumor cell lines
# The POL inhibitors (novobiocin, ART-558, and RP6685) were evaluated both individually and in combination with standard of care and investigational anticancer small molecules within a complex spheroid model of solid tumors. . Complex spheroids include a stromal component modeled by human endothelial cells (HUVEC) and fibroblasts modeled by human mesenchymal stem cells (MSCs). The concentration ranges selected for each drug and investigational agent were based upon clinically achievable concentrations if the clinical Cmax of the agent was known.
# Compounds. The drugs and investigational agents: novobiocin (NSC847541), ART-558 (NSC835418), RP-6685 (NSC848927), peposertib (NSC802822), ceralasertib (NSC780249), elimusertib (NSC800525), camonsertib (NSC841442), AZD-1390 (NSC803789), olaparib (NSC753686), talazoparib (NSC767125), rucaparib (NSC756644), sotorasib (NSC818433), MRTX-1133 (NSC836407), SN-38 (NSC673596), topotecan (NSC609699), epotoside (NSC141540), doxorubicin (NSC123127), gemcitabine (NSC613327), 5-fluorouracil (NSC19893), paclitaxel (NSC125973), vemurafenib (NSC761431), MSA-2 (NSC828583), SN-011 (NSC837082), adavosertib (NSC754352), prexasertib (NSC758257), carboplatin (NSC241240) and oxaliplatin (NSC266046), were obtained from the National Cancer Institute (NCI) Developmental Therapeutics Program Chemical Repository (21). The FDA-approved anticancer drug set is available from the Developmental Therapeutics Program at https://dtp.cancer.gov/organization/dscb/obtaining/. […] The stock solutions were prepared in dimethyl sulfoxide (DMSO, Sigma-Aldrich, St. Louis, MO, cat. D2650), except for the platinum compounds which were prepared in saline (Quality Biological, Gaithersburg, MD, cat. 114-055-101), at 800-fold the tested concentration and stored at -70 degrees C prior to their use. All drugs and investigational agents were tested over a range starting from a high concentration at or near the clinical Cmax and decreasing in half-log increments. If the clinical Cmax for an agent had not been determined, the highest concentration tested was 10 microM, except for SN-38, which was tested at a high concentration of 1 microM.
# Cell Culture. All cells were maintained in an incubator at 37 degrees C and 5% CO2 with 95% humidity. The PDC lines were cultured according to standard operating procedures established by the NCI PDMR (https://pdmr.cancer.gov). Table 3 of the manuscript, lists the cell lines along with the number of the three cell types plated to form the mct-spheroids and media for tumor cell growth. After thawing, all PDC lines, except 997537-175-T-J1-PDC and 415267-285-R-J2-PDC, were cultured in Matrigel-coated flasks prepared with a working solution of 1X Ham's F-12 nutrient mix, without supplementation (Thermo Fisher Scientific, cat. 11765054), 100 U/mL penicillin-streptomycin (Thermo Fisher Scientific, cat. 15140122), and 2.5% Matrigel (Corning Inc., Corning, NY, cat. 354248) for the first three passages. The two PDC lines 997537-175-T-J1-PDC and 415267-285-R-J2-PDC were cultured on uncoated flasks. The 857933-349-R-J2-PDC line was cultured in 6C/Colon 1B media containing advanced DMEM/F-12 (Thermo Fisher Scientific, cat. 12634028), 10 mM HEPES (Thermo Fisher Scientific, cat. 15630080), 1X GlutaMAX supplement (Thermo Fisher Scientific, cat. 35050061), 0.1 mg/mL primocin (InvivoGen, San Diego, CA, cat. ant-pm-2), 10% defined fetal bovine serum, heat inactivated (HyClone Laboratories Inc., Logan, UT, cat. SH30070.03HI), 50% L-WRN conditioned media (ATCC, cat. CRL-3276), 1.25 mM N-Acetyl-L-cysteine (Sigma-Aldrich, cat. A9165), 10 mM nicotinamide (Sigma-Aldrich, cat. N0636), 1X B-27 supplement (Thermo Fisher Scientific, cat. 17504044), 1X N-2 supplement (Thermo Fisher Scientific, cat. […]
# 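Also: spheroids exposed to compounds for 7 days.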
smiles,measurement,setting,value
CC(=O)O[C@H]1C(=O)[C@@]2(C)[C@H]([C@H](OC(=O)c3ccccc3)[C@]3(O)C[C@H](OC(=O)[C@H](O)[C@@H](NC(=O)c4ccccc4)c4ccccc4)C(C)=C1C3(C)C)[C@]1(OC(C)=O)CO[C@@H]1C[C@@H]2O + COC1C(OC(N)=O)C(O)C(Oc2ccc3c(O)c(NC(=O)c4ccc(O)c(CC=C(C)C)c4)c(=O)oc3c2C)OC1(C)C,pIC50,second compound 0.0316 µM,< 5.52
same,pIC50,second compound 0.1 µM,< 5.52
same,pIC50,second compound 0.316 µM,< 5.52
same,pIC50,second compound 1 µM,< 5.52
same,pIC50,second compound 3.16 µM,< 5.52
same,pIC50,second compound 10 µM,< 5.52
same,"viability, T/C","second compound 0.0316 µM, first compound 0.00949 µM",57.8%
same,"viability, T/C","second compound 0.0316 µM, first compound 0.03 µM",60.2%
same,"viability, T/C","second compound 0.0316 µM, first compound 0.0949 µM",55.6%
same,"viability, T/C","second compound 0.0316 µM, first compound 0.3 µM",59%
same,"viability, T/C","second compound 0.0316 µM, first compound 0.949 µM",59.9%
same,"viability, T/C","second compound 0.0316 µM, first compound 3 µM",61.6%
same,"viability, T/C","second compound 0.1 µM, first compound 0.00949 µM",66.1%
same,"viability, T/C","second compound 0.1 µM, first compound 0.03 µM",59.6%
same,"viability, T/C","second compound 0.1 µM, first compound 0.0949 µM",56.8%
same,"viability, T/C","second compound 0.1 µM, first compound 0.3 µM",66.1%
same,"viability, T/C","second compound 0.1 µM, first compound 0.949 µM",64.5%
same,"viability, T/C","second compound 0.1 µM, first compound 3 µM",56.8%
same,"viability, T/C","second compound 0.316 µM, first compound 0.00949 µM",64%
same,"viability, T/C","second compound 0.316 µM, first compound 0.03 µM",54.9%
same,"viability, T/C","second compound 0.316 µM, first compound 0.0949 µM",55.7%
same,"viability, T/C","second compound 0.316 µM, first compound 0.3 µM",56.6%
same,"viability, T/C","second compound 0.316 µM, first compound 0.949 µM",61.1%
same,"viability, T/C","second compound 0.316 µM, first compound 3 µM",68.4%
same,"viability, T/C","second compound 1 µM, first compound 0.00949 µM",65.4%
same,"viability, T/C","second compound 1 µM, first compound 0.03 µM",60%
same,"viability, T/C","second compound 1 µM, first compound 0.0949 µM",57.9%
same,"viability, T/C","second compound 1 µM, first compound 0.3 µM",62.3%
same,"viability, T/C","second compound 1 µM, first compound 0.949 µM",53.1%
same,"viability, T/C","second compound 1 µM, first compound 3 µM",56%
same,"viability, T/C","second compound 3.16 µM, first compound 0.00949 µM",64.3%
same,"viability, T/C","second compound 3.16 µM, first compound 0.03 µM",57.6%
same,"viability, T/C","second compound 3.16 µM, first compound 0.0949 µM",52.9%
same,"viability, T/C","second compound 3.16 µM, first compound 0.3 µM",56.3%
same,"viability, T/C","second compound 3.16 µM, first compound 0.949 µM",60.3%
same,"viability, T/C","second compound 3.16 µM, first compound 3 µM",66.5%
same,"viability, T/C","second compound 10 µM, first compound 0.00949 µM",60.6%
same,"viability, T/C","second compound 10 µM, first compound 0.03 µM",51.5%
same,"viability, T/C","second compound 10 µM, first compound 0.0949 µM",59.3%
same,"viability, T/C","second compound 10 µM, first compound 0.3 µM",56.5%
same,"viability, T/C","second compound 10 µM, first compound 0.949 µM",67.2%
same,"viability, T/C","second compound 10 µM, first compound 3 µM",67.4%
CC[C@@]1(O)C(=O)OCc2c1cc1n(c2=O)Cc2cc3c(CN(C)C)c(O)ccc3nc2-1 + COC1C(OC(N)=O)C(O)C(Oc2ccc3c(O)c(NC(=O)c4ccc(O)c(CC=C(C)C)c4)c(=O)oc3c2C)OC1(C)C,pIC50,second compound 0.0316 µM,< 7.00
same,pIC50,second compound 0.1 µM,7.02
same,pIC50,second compound 0.316 µM,< 7.00
same,pIC50,second compound 1 µM,< 7.00
same,pIC50,second compound 3.16 µM,< 7.00
same,pIC50,second compound 10 µM,< 7.00
same,"viability, T/C","second compound 0.0316 µM, first compound 0.000316 µM",102%
same,"viability, T/C","second compound 0.0316 µM, first compound 0.001 µM",101%
same,"viability, T/C","second compound 0.0316 µM, first compound 0.00316 µM",84%
same,"viability, T/C","second compound 0.0316 µM, first compound 0.01 µM",98.1%
same,"viability, T/C","second compound 0.0316 µM, first compound 0.0316 µM",76.2%
same,"viability, T/C","second compound 0.0316 µM, first compound 0.1 µM",51.3%
same,"viability, T/C","second compound 0.1 µM, first compound 0.000316 µM",111%
same,"viability, T/C","second compound 0.1 µM, first compound 0.001 µM",117%
same,"viability, T/C","second compound 0.1 µM, first compound 0.00316 µM",97.6%
same,"viability, T/C","second compound 0.1 µM, first compound 0.01 µM",97%
same,"viability, T/C","second compound 0.1 µM, first compound 0.0316 µM",76.7%
same,"viability, T/C","second compound 0.1 µM, first compound 0.1 µM",48.3%
same,"viability, T/C","second compound 0.316 µM, first compound 0.000316 µM",94.4%
same,"viability, T/C","second compound 0.316 µM, first compound 0.001 µM",101%
same,"viability, T/C","second compound 0.316 µM, first compound 0.00316 µM",94.4%
same,"viability, T/C","second compound 0.316 µM, first compound 0.01 µM",87.2%
same,"viability, T/C","second compound 0.316 µM, first compound 0.0316 µM",73.2%
same,"viability, T/C","second compound 0.316 µM, first compound 0.1 µM",54.4%
same,"viability, T/C","second compound 1 µM, first compound 0.000316 µM",104%
same,"viability, T/C","second compound 1 µM, first compound 0.001 µM",94.6%
same,"viability, T/C","second compound 1 µM, first compound 0.00316 µM",93.7%
same,"viability, T/C","second compound 1 µM, first compound 0.01 µM",95.3%
same,"viability, T/C","second compound 1 µM, first compound 0.0316 µM",76.2%
same,"viability, T/C","second compound 1 µM, first compound 0.1 µM",56.1%
same,"viability, T/C","second compound 3.16 µM, first compound 0.000316 µM",98.5%
same,"viability, T/C","second compound 3.16 µM, first compound 0.001 µM",104%
same,"viability, T/C","second compound 3.16 µM, first compound 0.00316 µM",97%
same,"viability, T/C","second compound 3.16 µM, first compound 0.01 µM",84.3%
same,"viability, T/C","second compound 3.16 µM, first compound 0.0316 µM",77.3%
same,"viability, T/C","second compound 3.16 µM, first compound 0.1 µM",55.1%
same,"viability, T/C","second compound 10 µM, first compound 0.000316 µM",109%
same,"viability, T/C","second compound 10 µM, first compound 0.001 µM",94.5%
same,"viability, T/C","second compound 10 µM, first compound 0.00316 µM",94.4%
same,"viability, T/C","second compound 10 µM, first compound 0.01 µM",79.2%
same,"viability, T/C","second compound 10 µM, first compound 0.0316 µM",66.1%
same,"viability, T/C","second compound 10 µM, first compound 0.1 µM",50.9%
